Reference: patent publication US7795457B2, “Carbamate compounds” (Kosan Biosciences Incorporated, priority 2007, dated 2010)
Read-outs that look alike come from different tables or passages of the source.

Assays:
SiHa = test: Inhibition of tumor cell proliferation, SiHa; assay type: cell-based, human; conditions: read-out: Cancer Cell Line (IC50, nM) SiHa
Procedure: (§1) The biological activity of compounds of this invention was evaluated by measuring their inhibitory effect on the proliferation of various tumor cell lines. HCT-116 is a human colon cancer cell line. LNCap is a human prostate cancer cell line. SiHa is an HPV-16 positive human cervical cancer line.

CRM1 substrate RanBP1 = test: Nuclear export block (RanBP1 localization, recovery after compound removal); assay type: cell-based; conditions: recovery of cytoplasmic RanBP1 localization after compound washout (typically 1 h exposure; 8, 24 or 48 h recovery)
Procedure: The nuclear export blocking capability of compounds of this invention was evaluated as follows:
1-5×10^4 cells were seeded onto 12 mm glass coverslips or wells of a chamber slide (for example, Lab-Tek #177445). Cells were grown overnight at 37° C. to allow cells to attach to the surface. Media was removed and replaced with media containing the desired test compound and incubated the required time period (typically 1 h). For recovery experiments, cells were washed with PBS or media and incubated in media without test compound for the desired recovery periods (typically 8, 24, or 48 h). The media was removed and coverslips/wells were washed with PBS pH 7.4 for 1 minute. Coverslips or slides were fixed with 3.7% formaldehyde in PBS for 20 minutes at room temperature, washed three times in PBS, and stained for the CRM1 substrate RanBP1.
Coverslips or chamber slides were permeabilized and blocked in 10% donkey serum, 0.1% Triton X-100 in PBS for 30 minutes at room temperature. Primary antibodies were diluted in PBS and incubated for 1 hour at room temperature: goat-anti-RanBP1 (Santa Cruz Biotechnology, sc-1160; 1:50 dilution) and mouse-anti-tubulin (Sigma, T9026; 1:400). Cells were washed 3×5 minutes in PBS. Secondary antibodies donkey-anti-goat Cy3 (705-165-147, Jackson Immunoresearch) and donkey anti-mouse FITC (715-095-150, Jackson Immunoresearch) were diluted 1:200 in PBS and incubated for 1 hour at room temperature. Secondary antibody was removed and cells were stained with a nuclear dye such as DAPI (Sigma, D8417; 2.5 ug/mL in PBS) or Hoechst 33342 (Molecular Probes, H3570; 100 ng/mL in PBS) for 5 minutes at room temperature. Cells were washed 3×5 minutes in PBS and coverslips were mounted with FluorSave (EMD Biosciences, 80058-108). Nuclear (N) or cytoplasmic (C) localization of RanBP1 was examined using a 40× objective on a Zeiss Axiovert 200 inverted epiflourescence microscope. Nuclear localization (N>C) was confirmed after the initial drugging period.

LNCap = test: Inhibition of tumor cell proliferation, LNCap; assay type: cell-based, human; conditions: read-out: Cancer Cell Line (IC50, nM) LNCap
Procedure: as §1

HCT-116 = test: Inhibition of tumor cell proliferation, HCT-116; assay type: cell-based, human; conditions: read-out: Cancer Cell Line (IC50, nM) HCT-116
Procedure: as §1

| Molecule | IC50 (SiHa; Homo sapiens, SiHa, 1 h) | IC50 (HCT-116; Homo sapiens, HCT-116, 1 h) | IC50 (SiHa; exposure time to compound 1 h) | IC50 (HCT-116; exposure time to compound 1 h) | IC50 (HCT-116; exposure time to compound 72 h) | also measured |
| --- | --- | --- | --- | --- | --- | --- |
| CNC(=O)OC/C=C(\C)C[C@H](C)[C@@H](O)[C@H](C)C(=O)[C@H](C)/C=C(C)/C=C/C[C@@H](C)/C=C(C)\C=C\[C@H]1CC=CC(=O)O1 [Compound A-2] | 1.2 nM | 3.7 nM |  |  |  | IC50 (SiHa; Homo sapiens, SiHa, 72 h): 0.4 nM; Nuclear Export Block (CRM1 substrate RanBP1): Slow recovery; IC50 (LNCap; Homo sapiens, LNCaP, 1 h): 2.7 nM; IC50 (LNCap; Homo sapiens, LNCaP, 72 h): 0.4 nM; IC50 (HCT-116; Homo sapiens, HCT-116, 72 h): 0.7 nM |
| CC(C=CC1CC=CC(=O)O1)=CC(C)CC=CC(C)=CC(C)C(=O)C(C)C(O)C(C)CC(C)=CCOC(=O)NCCN1CCCC1 (stereo not drawn) [Compound A-5] |  |  | 2.1 nM | 2.2 nM | 1.6 nM | IC50 (LNCap; exposure time to compound 1 h): 1.7 nM; IC50 (LNCap; exposure time to compound 72 h): 0.5 nM |
| CC(C=CC1CC=CC(=O)O1)=CC(C)CC=CC(C)=CC(C)C(=O)C(C)C(O)C(C)CC(C)=CCOC(=O)NCCc1cccnc1 (stereo not drawn) [Compound A-6] |  |  | 2.1 nM | 2.6 nM | 0.8 nM | Nuclear Export Block (CRM1 substrate RanBP1): Slow recovery; IC50 (LNCap; exposure time to compound 1 h): 2.8 nM; IC50 (LNCap; exposure time to compound 72 h): 0.4 nM |
| CC(C=CC1CC=CC(=O)O1)=CC(C)CC=CC(C)=CC(C)C(=O)C(C)C(O)C(C)CC(C)=CCOC(=O)NCCN1CCOCC1 (stereo not drawn) [Compound A-7] |  |  | 0.5 nM | 1.8 nM | 0.4 nM | IC50 (LNCap; exposure time to compound 1 h): 1.7 nM; IC50 (LNCap; exposure time to compound 72 h): 0.4 nM |
| CCN(CC)CCNC(=O)OCC=C(C)CC(C)C(O)C(C)C(=O)C(C)C=C(C)C=CCC(C)C=C(C)C=CC1CC=CC(=O)O1 (stereo not drawn) [Compound A-8] |  |  | 0.5 nM | 2.6 nM | 0.8 nM | IC50 (LNCap; exposure time to compound 1 h): 1.3 nM; IC50 (LNCap; exposure time to compound 72 h): 0.4 nM |
| CC(C=CC1CC=CC(=O)O1)=CC(C)CC=CC(C)=CC(C)C(=O)C(C)C(O)C(C)CC(C)=CCOC(=O)NCCc1ccc(F)cc1 (stereo not drawn) [Compound A-9] |  |  | 8.2 nM | 13.8 nM |  |  |
| COCCNC(=O)OCC=C(C)CC(C)C(O)C(C)C(=O)C(C)C=C(C)C=CCC(C)C=C(C)C=CC1CC=CC(=O)O1 (stereo not drawn) [Compound A-10] |  |  | 2.5 nM | 3.2 nM |  |  |
| CC(C=CC1CC=CC(=O)O1)=CC(C)CC=CC(C)=CC(C)C(=O)C(C)C(O)C(C)CC(C)=CCOC(=O)NCCc1c(C)noc1C (stereo not drawn) [Compound A-11] |  |  | 3.1 nM | 4.2 nM |  |  |
| CC(C=CC1CC=CC(=O)O1)=CC(C)CC=CC(C)=CC(C)C(=O)C(C)C(O)C(C)CC(C)=CCOC(=O)NCc1ccc(F)cc1 (stereo not drawn) [Compound A-12] |  |  | 5.8 nM | 13.9 nM |  |  |
| CC(C=CC1CC=CC(=O)O1)=CC(C)CC=CC(C)=CC(C)C(=O)C(C)C(O)C(C)CC(C)=CCOC(=O)NCCN1CCCC1=O (stereo not drawn) [Compound A-13] |  |  | 3.4 nM | 2.9 nM |  |  |
| CC(C=CC1CC=CC(=O)O1)=CC(C)CC=CC(C)=CC(C)C(=O)C(C)C(O)C(C)CC(C)=CCOC(=O)NCCn1ccnc1 (stereo not drawn) [Compound A-14] |  |  | 3.8 nM | 2.9 nM |  |  |
| CC(=C/[C@H](C)C/C=C/C(C)=C/[C@@H](C)C(=O)[C@@H](C)[C@H](O)[C@@H](C)C/C(C)=C/COC(=O)NCc1cc(C)on1)/C=C/[C@H]1CC=CC(=O)O1 [Compound A-15] | 3.6 nM | 2.8 nM |  |  |  |  |
| CC(=C/[C@H](C)C/C=C/C(C)=C/[C@@H](C)C(=O)[C@@H](C)[C@H](O)[C@@H](C)C/C(C)=C/COC(=O)NCc1ccccn1)/C=C/[C@H]1CC=CC(=O)O1 [Compound A-16] | 3.8 nM | 2.9 nM |  |  |  |  |
| CC(=C/[C@H](C)C/C=C/C(C)=C/[C@@H](C)C(=O)[C@@H](C)[C@H](O)[C@@H](C)C/C(C)=C/COC(=O)NC[C@@H](O)CO)/C=C/[C@H]1CC=CC(=O)O1 [Compound A-17] | 3.2 nM | 3.6 nM |  |  |  |  |
| CC(C=CC1CC=CC(=O)O1)=CC(C)CC=CC(C)=CC(C)C(=O)C(C)C(OC(N)=O)C(C)CC(C)=CCOC(=O)N(Cc1ccccc1)C(N)=O (stereo not drawn) [Compound A-18] |  |  | 22.5 nM | 20.3 nM |  |  |
| CC(=C/[C@H](C)C/C=C/C(C)=C/[C@@H](C)C(=O)[C@@H](C)[C@H](O)[C@@H](C)C/C(C)=C/COC(=O)NCc1nccs1)/C=C/[C@H]1CC=CC(=O)O1 [Compound A-19] | 4.5 nM | 4.4 nM |  |  |  |  |
| CC(C=CC1CC=CC(=O)O1)=CC(C)CC=CC(C)=CC(C)C(=O)C(C)C(OC(N)=O)C(C)CC(C)=CCOC(=O)NCc1nccs1 (stereo not drawn) [Compound A-20] |  |  | 4.6 nM | 9.4 nM | 2.6 nM |  |
| CC(=C/[C@H](C)C/C=C/C(C)=C/[C@@H](C)C(=O)[C@@H](C)[C@H](O)[C@@H](C)C/C(C)=C/COC(=O)NCc1ccc(C(F)(F)F)cn1)/C=C/[C@H]1CC=CC(=O)O1 [Compound A-21] | 11.5 nM | 20 nM |  |  |  | IC50 (HCT-116; Homo sapiens, HCT-116, 72 h): 3.1 nM |
| CC(=C/[C@H](C)C/C=C/C(C)=C/[C@@H](C)C(=O)[C@@H](C)[C@H](O)[C@@H](C)C/C(C)=C/COC(=O)NCc1ccc(C(F)(F)F)nc1)/C=C/[C@H]1CC=CC(=O)O1 [Compound A-22] |  | 18.1 nM |  |  |  |  |
| CC(=C/[C@H](C)C/C=C/C(C)=C/[C@@H](C)C(=O)[C@@H](C)[C@H](O)[C@@H](C)C/C(C)=C/COC(=O)NCc1cccc(C(F)(F)F)n1)/C=C/[C@H]1CC=CC(=O)O1 [Compound A-23] |  | 21.5 nM |  |  |  |  |
| CC(=C/[C@H](C)C/C=C/C(C)=C/[C@@H](C)C(=O)[C@@H](C)[C@H](OC(N)=O)[C@@H](C)C/C(C)=C/CO)/C=C/[C@H]1CC=CC(=O)O1 [IV] | 3.3 nM | 8.1 nM |  |  |  |  |
| CC(/C=C/C[C@@H](C)/C=C(C)/C=C/[C@@H]1OC(=O)C=C[C@@H]1C)=C\[C@@H](C)C(=O)[C@@H](C)[C@H](O)[C@@H](C)C/C(C)=C/C(=O)O [Leptomycin A, leptomycin A, reference compound] |  |  |  | 19 nM | 1.4 nM | IC50 (SiHa; exposure time to compound 72 h): 0.5 nM; Nuclear Export Block (CRM1 substrate RanBP1): Fast recovery |
| leptolstatin [reference compound] |  |  | 1.6 nM | 5.5 nM | 0.49 nM | IC50 (SiHa; exposure time to compound 72 h): 0.45 nM; Nuclear Export Block (CRM1 substrate RanBP1): Slow recovery |
